Legend:
[1] = molecular target: T1, ABCB1 (Homo sapiens, UniProt P08183); assay: vanadate-sensitive ATPase, endpoint Pi assay, membrane vesicles; type: biochemical; conditions: read-out: concentration to produce half of the maximum stimulation
T1 construct: membrane vesicles of ABCB1-overexpressing High Five insect cells
Source text: vanadate-sensitive ATPase, endpoint Pi assay, membrane vesicles on ABCB1 | HS-173 stimulated the ATPase activity of ABCB1 in a concentration-dependent manner

[2] = molecular target: T2, ABCG2 (Homo sapiens, UniProt Q9UNQ0); assay: as above; type: biochemical; conditions: read-out: concentration to produce half of the highest stimulation
T2 construct: membrane vesicles of ABCG2-overexpressing High Five insect cells; homodimer
T2 sequence (Q9UNQ0 1-655): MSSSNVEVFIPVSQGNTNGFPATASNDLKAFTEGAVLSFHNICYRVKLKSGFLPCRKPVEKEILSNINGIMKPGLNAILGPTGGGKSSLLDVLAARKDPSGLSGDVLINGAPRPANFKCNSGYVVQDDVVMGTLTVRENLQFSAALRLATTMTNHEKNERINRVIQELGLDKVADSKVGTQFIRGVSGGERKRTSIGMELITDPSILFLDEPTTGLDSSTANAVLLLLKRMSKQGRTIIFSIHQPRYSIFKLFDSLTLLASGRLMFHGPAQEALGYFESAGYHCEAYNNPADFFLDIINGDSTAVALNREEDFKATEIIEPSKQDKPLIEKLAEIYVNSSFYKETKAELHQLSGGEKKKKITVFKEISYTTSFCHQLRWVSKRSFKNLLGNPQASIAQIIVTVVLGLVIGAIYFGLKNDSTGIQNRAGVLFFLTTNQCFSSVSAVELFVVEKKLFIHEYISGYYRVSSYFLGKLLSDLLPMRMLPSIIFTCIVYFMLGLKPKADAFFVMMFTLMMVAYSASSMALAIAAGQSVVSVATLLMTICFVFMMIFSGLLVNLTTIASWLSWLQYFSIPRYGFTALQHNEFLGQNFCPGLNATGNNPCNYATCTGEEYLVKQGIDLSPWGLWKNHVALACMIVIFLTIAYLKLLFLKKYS
Source text: vanadate-sensitive ATPase, endpoint Pi assay, membrane vesicles on ABCG2 | ABCG2-mediated ATP hydrolysis was stimulated by HS-173 in a concentration-dependent manner

T1 sequence (P08183 whole entry): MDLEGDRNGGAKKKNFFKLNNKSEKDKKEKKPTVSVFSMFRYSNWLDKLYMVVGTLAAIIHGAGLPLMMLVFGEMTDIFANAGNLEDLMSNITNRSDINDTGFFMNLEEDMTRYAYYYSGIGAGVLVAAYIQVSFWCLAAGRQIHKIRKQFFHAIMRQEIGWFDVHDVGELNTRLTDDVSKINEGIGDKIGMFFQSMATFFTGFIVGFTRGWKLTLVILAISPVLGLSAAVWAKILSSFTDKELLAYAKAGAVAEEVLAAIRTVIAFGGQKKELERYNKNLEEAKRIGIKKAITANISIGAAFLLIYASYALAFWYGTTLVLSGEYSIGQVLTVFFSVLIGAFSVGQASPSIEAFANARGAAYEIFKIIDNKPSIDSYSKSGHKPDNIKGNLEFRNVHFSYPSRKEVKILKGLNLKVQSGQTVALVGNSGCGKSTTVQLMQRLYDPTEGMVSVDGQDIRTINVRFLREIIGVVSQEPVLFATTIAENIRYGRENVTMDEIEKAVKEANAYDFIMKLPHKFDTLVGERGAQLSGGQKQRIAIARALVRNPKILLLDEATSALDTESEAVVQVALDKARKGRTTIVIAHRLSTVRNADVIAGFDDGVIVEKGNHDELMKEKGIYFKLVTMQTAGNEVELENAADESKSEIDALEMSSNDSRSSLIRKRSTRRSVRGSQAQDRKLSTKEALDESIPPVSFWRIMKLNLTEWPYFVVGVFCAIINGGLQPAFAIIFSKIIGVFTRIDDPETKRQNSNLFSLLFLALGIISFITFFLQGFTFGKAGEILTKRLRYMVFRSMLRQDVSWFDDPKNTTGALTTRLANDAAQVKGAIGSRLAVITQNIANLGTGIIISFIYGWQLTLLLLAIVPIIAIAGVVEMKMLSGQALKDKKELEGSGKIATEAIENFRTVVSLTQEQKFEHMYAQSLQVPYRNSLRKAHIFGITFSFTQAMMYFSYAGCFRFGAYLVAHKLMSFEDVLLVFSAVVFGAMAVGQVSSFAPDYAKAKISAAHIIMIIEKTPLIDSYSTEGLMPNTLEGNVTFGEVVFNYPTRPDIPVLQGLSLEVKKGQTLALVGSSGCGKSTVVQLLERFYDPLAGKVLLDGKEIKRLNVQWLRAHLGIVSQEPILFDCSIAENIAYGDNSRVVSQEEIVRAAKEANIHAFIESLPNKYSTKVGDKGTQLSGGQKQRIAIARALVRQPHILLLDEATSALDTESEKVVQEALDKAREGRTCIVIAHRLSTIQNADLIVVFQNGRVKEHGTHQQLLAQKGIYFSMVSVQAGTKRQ

An EC50 [1] of roughly 1700 nM and an EC50 [2] of roughly 400 nM were found for `CCOC(=O)c1cnc2ccc(-c3cncc(NS(=O)(=O)c4ccccc4)c3)cn12` [HS-173] in this work.

From paper PMC10093605, “ABCB1 and ABCG2 Overexpression Mediates Resistance to the Phosphatidylinositol 3-Kinase Inhibitor HS-173 in Cancer Cell Lines” (Cells, 2023)
